For assay [1], the target named is T1, RyR1 (Oryctolagus cuniculus, UniProt P11716).
T1 construct: from tissue; host or cells: rabbit skeletal muscle sarcoplasmic reticulum microsomes
Kind of assay: S107 binding in the presence of increasing concentrations of ATP or ADP. On the set-up: species or system rabbit.

In assay [2] the target is T2, RyR1-W996A (Oryctolagus cuniculus, UniProt P11716, W996A).
T2 construct: Each fragment was subcloned into a full length RyR1 construct in pcDNA3.1 vector; expressed in transfected cells; host or cells: HEK293 (also 293T/17) cells, pcDNA3.1
It counts as binding, rabbit.

The target in assay [3] is T3, RyR1-WT (Oryctolagus cuniculus, UniProt P11716).
T3 construct: Each fragment was subcloned into a full length RyR1 construct in pcDNA3.1 vector; expressed in transfected cells; host or cells: HEK293 (also 293T/17) cells, pcDNA3.1
It counts as binding, rabbit.

In assay [4] the target is T4, RyR1-W882A (Oryctolagus cuniculus, UniProt P11716, W882A). The following applies: radiolabeled ATP.
Assay [5] deals with HEK293 cells expressing mutant RyR1. Kind of assay: Ca2+ imaging, caffeine-induced Ca2+ release. The settings on record: both mutants, 1 mM H2O2, 10 mM caffeine. It counts as cell-based, rabbit.
Assay [6] has as its target T1, RyR1. Kind of assay: 3H-S107 radioligand binding, skeletal SR microsomes untreated or treated with PKA and H2O2. Details: species or system rabbit. As for the experimental part: For PKA-phosphorylated channel experiments, […] of microsomes were in vitro phosphorylated with 40 units of PKA catalytic subunit (SigmaAldrich, Cat #P2645) for 30 min at 30° C. in the presence of the following buffer: 50 mM Tris/PIPES pH 7.0, 8 mM MgCl2, 1 mM MgATP, and 1 mM EGTA. The samples were then spun by centrifuge for 10 min at 100,000×g. The resulting pellets were washed four times with wash buffer (300 mM sucrose, 10 mM imidazole, pH 7.4) and aliquots were frozen in liquid nitrogen and stored at −80° C. Oxidation of RyR1 was induced by incubating microsomes with 1 mM H2O2 for 30 min at room temperature prior to washing.
Titrative ^3H-S107 binding, performed in the absence and presence of 10 mM NaATP, was initiated by addition of ^3H-S107 (10-10,000 nM final concentration) to 0.1 mg skeletal sarcoplasmic reticulum (SR) microsomes in binding buffer (50 mM Tris-HCl, pH 7.5, 150 mM NaCl, 25 mM MgCl2). […] All samples were incubated at room temperature for 30 min ^3H-S107 binding was stopped by addition of ice-cold binding buffer prior to filtration through GF/B Whatman filters pre-equilibrated with 0.015% PE. Filters were washed 3 times with 5 mL of wash buffer (10 mM MOPS, 200 mM NaCl, pH 7.4), dried, and counted. Data were normalized to ^3H-ryanodine binding. […].

A further assay concerns the target T5, purified RyR1 (Oryctolagus cuniculus, UniProt P11716).
T5 construct: RyR1 was purified from rabbit skeletal muscle; from tissue
Description: 3H-S107 binding to purified RyR1 in absence and presence of 10 mM ATP. Details: species or system rabbit.

For assay [7], the target named is T3, RyR1-WT. Kind of assay: 3H-S107 binding, recombinant RyR1 HEK293 microsomes treated with PKA and H2O2. Details: species or system rabbit.
Assay [8] deals with T4, RyR1-W882A. The description is as above. The settings on record: W882A mutation. Details: Each fragment was subcloned into a full length RyR1 construct in pcDNA3.1 vector; expressed in transfected cells; host or cells: HEK293 (also 293T/17) cells, pcDNA3.1; species or system rabbit.
For assay [9], the target named is T2, RyR1-W996A. The assay is described as above. On the set-up: species or system rabbit.
Setting [10] is: first section of TABLE 5, 10 mM ATP added.
Where [11] appears, read: third section of TABLE 5, ADP in place of ATP.

The term Kd denotes the constant that tells how readily two partners part at equilibrium.

On to `Nc1ncnc2c1ncn2[C@@H]1O[C@H](COP(=O)(O)OP(=O)(O)O)[C@@H](O)[C@H]1O` [ADP, adenosine diphosphate], for which, at RyR1 [1], the “competition with S107 binding” value is “significant inhibitory effect”. Moreover, on RyR1-W996A [2] (RyR1-W996A), the “ADP binding stoichiometry, in words” value is listed as “greater than one molecule per channel”. Moreover, on RyR1-WT [3], the stoichiometry was 12 molecules per channel.

Turning to `Nc1ncnc2c1ncn2[C@@H]1O[C@H](COP(=O)(O)OP(=O)(O)OP(=O)(O)O)[C@@H](O)[C@H]1O` [ATP, adenosine triphosphate], the “ATP binding, in words” value on RyR1-W882A [4] was “maintained, although slightly reduced”; at RyR1-W996A [2] (W996A mutant) it was “significantly reduced”.

As to `COc1ccc2c(c1)CN(Cc1ccc(C(=O)O)cc1)CCS2` [Compound 1, 4-[(7-methoxy-2,3-dihydro-1,4-benzothiazepin-4(5H)-yl)methyl]benzoic acid], the “caffeine-induced calcium release after oxidation” value in assay [5] was “unaffected”.

With `COc1ccc2c(c1)CN(C)CCS2` [Compound S107], the Bmax at RyR1 [6] (PKA/H2O2 treated microsomes) is on record as 3.7 ± 0.2 mol S107/mol RyR1; at RyR1 [6] (Untreated microsomes) it was 0.4 ± 0.1 mol S107/mol RyR1; on purified RyR1 (10 mM ATP), 3.0 ± 0.2 mol S107/mol RyR1; at purified RyR1 (No ATP) it was 0.4 ± 1.0 mol S107/mol RyR1; on RyR1-WT [7] (setting [10]), 3.5 ± 0.3 mol S107/mol RyR1; at RyR1-WT [7] (setting [11]) it was 3.6 ± 0.3 mol S107/mol RyR1. Moreover, the Bmax at RyR1-W996A [9] (RyR1-W996A, third section of TABLE 5, ADP in place of ATP) came out at 2.0 ± 0.2 mol S107/mol RyR1. Also, the Kd at RyR1 [6] (PKA/H2O2 treated microsomes) worked out at 155 ± 9 nM; at RyR1 [6] (Untreated microsomes), 150 ± 7 nM; at purified RyR1 (10 mM ATP), 152 ± 7 nM; at purified RyR1 (No ATP), 147 ± 6 nM; on RyR1-WT [7] (setting [10]) it was 200 ± 11 nM; on RyR1-WT [7] (setting [11]) it was 188 ± 12 nM. The Kd on RyR1-W996A [9] is 250 ± 10 nM. For the same molecule, at RyR1-W882A [8], the “3H-S107 binding to the channel, in words” value is recorded as “abolished”.

The record behind these values is patent US20230386615A1, “BINDING SITE IN TYPE 1 RYANODINE RECEPTOR” (The Trustees of Columbia University in the City of New York, priority 2021, published 2023).
